According to ChEMBL document CHEMBL1201862, “PubChem BioAssay data set” (2004):
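Method: 48-hour compound exposure of cells in 96-well plates, five concentrations, linear interpolation of endpoints. Here, GI50 denotes the concentration required for 50% inhibition of growth.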 The source made the active and inactive calls. Cut-off read from the data, not from the text of the source: active = GI50 up to about 1.1 µM and inactive = higher.

What was measured:
Test in all cases: inhibition of tumour cell growth, NCI panel, 48 h
A498 = test system: A498
NCI-H460 = test system: NCI-H460
LOX IMVI = test system: LOX IMVI
EKVX = test system: EKVX
TK-10 = test system: TK-10
RXF 393 = test system: RXF 393
Hs-578T = test system: Hs-578T
KM12 = test system: KM12
BT-549 = test system: BT-549
COLO 205 = test system: COLO 205
SR = test system: SR
SF-295 = test system: SF-295
HCT-116 = test system: HCT-116
ACHN = test system: ACHN
NCI-H226 = test system: NCI-H226
M14 = test system: M14
NCI-H522 = test system: NCI-H522
OVCAR-8 = test system: OVCAR-8
OVCAR-5 = test system: OVCAR-5
UACC-62 = test system: UACC-62

Compound	GI50 (A498)	GI50 (NCI-H460)	GI50 (LOX IMVI)	GI50 (EKVX)	GI50 (TK-10)	GI50 (RXF 393)	GI50 (Hs-578T)	GI50 (KM12)	GI50 (BT-549)	GI50 (COLO 205)	GI50 (SR)	GI50 (SF-295)	GI50 (HCT-116)	GI50 (ACHN)	GI50 (NCI-H226)	GI50 (M14)	GI50 (NCI-H522)	GI50 (OVCAR-8)	GI50 (OVCAR-5)	GI50 (UACC-62)
Nc1nc(SCc2ccccn2)c2ncn(C3CCCC3)c2n1	> 100 µM (inactive)	> 100 µM (inactive)	> 100 µM (inactive)	> 100 µM (inactive)	> 100 µM (inactive)	> 100 µM (inactive)	25.9 µM (inactive)	> 100 µM (inactive)	> 100 µM (inactive)	> 100 µM (inactive)	> 100 µM (inactive)	> 100 µM (inactive)	> 100 µM (inactive)	> 100 µM (inactive)	> 100 µM (inactive)	> 100 µM (inactive)	59.7 µM (inactive)	> 100 µM (inactive)	> 100 µM (inactive)	> 100 µM (inactive)
N#C/C=C(/NC(=O)Nc1ccccc1)N1CCCC1	> 100 µM (inactive)	> 37.5 µM (inactive)	> 66.7 µM (inactive)	> 59.7 µM (inactive)	> 36.2 µM (inactive)	> 100 µM (inactive)	> 86.1 µM (inactive)	> 54.8 µM (inactive)	> 67.5 µM (inactive)	> 55 µM (inactive)	> 100 µM (inactive)	> 31.5 µM (inactive)	> 34.8 µM (inactive)	> 38.7 µM (inactive)	> 42 µM (inactive)	> 49 µM (inactive)	> 47.4 µM (inactive)	> 32.5 µM (inactive)	> 65.6 µM (inactive)	> 82.6 µM (inactive)
CCOC(=O)n1c(=O)nc2c3c(ncn21)Oc1c(c(-c2ccccc2)nn1-c1ccccc1)C3c1ccc(Cl)cc1 (configuration not stated)	1.79 µM (inactive)	1.68 µM (inactive)	1.46 µM (inactive)	–	1.7 µM (inactive)	1.57 µM (inactive)	1.66 µM (inactive)	1.56 µM (inactive)	1.57 µM (inactive)	1.32 µM (inactive)	1.35 µM (inactive)	1.86 µM (inactive)	1.5 µM (inactive)	1.71 µM (inactive)	1.63 µM (inactive)	1.92 µM (inactive)	1.73 µM (inactive)	1.69 µM (inactive)	2.1 µM (inactive)	1.7 µM (inactive)
C/C=C/[C@@H]1O[C@H](CC#C[Si](C)(C)C)[C@@]2(C=O)C(C)=CC[C@H](C(C)C)[C@@H]12	29.6 µM (inactive)	17.1 µM (inactive)	4.5 µM (inactive)	18.8 µM (inactive)	15 µM (inactive)	18 µM (inactive)	33.3 µM (inactive)	17.7 µM (inactive)	22.4 µM (inactive)	21.5 µM (inactive)	2.44 µM (inactive)	21.9 µM (inactive)	18.2 µM (inactive)	19.2 µM (inactive)	20.3 µM (inactive)	18.5 µM (inactive)	2.09 µM (inactive)	23.4 µM (inactive)	21 µM (inactive)	15.8 µM (inactive)
O=C1c2ccccc2NC(c2cc(Cl)cc(Cl)c2O)N1CCc1ccccn1 (configuration not stated)	> 100 µM (inactive)	56.2 µM (inactive)	> 100 µM (inactive)	62.5 µM (inactive)	> 100 µM (inactive)	44.7 µM (inactive)	55.8 µM (inactive)	64 µM (inactive)	> 100 µM (inactive)	> 100 µM (inactive)	47.5 µM (inactive)	> 100 µM (inactive)	67 µM (inactive)	87.3 µM (inactive)	> 100 µM (inactive)	64.4 µM (inactive)	41.9 µM (inactive)	80.2 µM (inactive)	> 100 µM (inactive)	> 100 µM (inactive)
CCN(CC)Cc1cc(/N=N\c2c(O)ccc3c(/N=N\c4ccc(O)c(CN(CC)CC)c4)c(O)ccc23)ccc1O	13.3 µM (inactive)	1.91 µM (inactive)	1.59 µM (inactive)	4.56 µM (inactive)	6.89 µM (inactive)	2.94 µM (inactive)	3.73 µM (inactive)	1.18 µM (inactive)	4.92 µM (inactive)	1.61 µM (inactive)	0.993 µM (active)	5.01 µM (inactive)	1.94 µM (inactive)	2.49 µM (inactive)	4.54 µM (inactive)	5.4 µM (inactive)	2.31 µM (inactive)	2.12 µM (inactive)	6.49 µM (inactive)	4.41 µM (inactive)
CN(CCO)CC(=O)CC(O)(C(F)(F)F)C(F)(F)F	44.6 µM (inactive)	27.5 µM (inactive)	31.4 µM (inactive)	31.2 µM (inactive)	35.4 µM (inactive)	19.5 µM (inactive)	21.3 µM (inactive)	39.8 µM (inactive)	43.7 µM (inactive)	35.3 µM (inactive)	40.8 µM (inactive)	30 µM (inactive)	30.8 µM (inactive)	27.7 µM (inactive)	36.3 µM (inactive)	32.5 µM (inactive)	40.2 µM (inactive)	41.3 µM (inactive)	52.5 µM (inactive)	35.6 µM (inactive)
CCN(CC)C(=S)N/N=C(/c1ccccc1)c1ccccn1	0.311 µM (active)	0.0783 µM (active)	0.2 µM (active)	0.583 µM (active)	0.439 µM (active)	0.277 µM (active)	> 37.6 µM (inactive)	0.0942 µM (active)	0.471 µM (active)	0.0275 µM (active)	0.106 µM (active)	0.342 µM (active)	0.0454 µM (active)	0.264 µM (active)	1.66 µM (inactive)	0.0618 µM (active)	0.0984 µM (active)	0.0362 µM (active)	0.238 µM (active)	–
O=C1CSC(c2ccccc2O)N1c1ccc(-n2c(-c3ccccc3)nc3ccccc3c2=O)cc1 (configuration not stated)	29.7 µM (inactive)	14.8 µM (inactive)	13.1 µM (inactive)	–	48.2 µM (inactive)	42.7 µM (inactive)	23.4 µM (inactive)	20.9 µM (inactive)	21.6 µM (inactive)	30.3 µM (inactive)	21.4 µM (inactive)	16.4 µM (inactive)	11 µM (inactive)	19.7 µM (inactive)	25 µM (inactive)	33.7 µM (inactive)	19.9 µM (inactive)	24.3 µM (inactive)	30.8 µM (inactive)	21.5 µM (inactive)
Cc1cccc2c(NCCCN(C)C)c3c([N+](=O)[O-])ccc(C)c3nc12	< 0.01 µM (active)	< 0.0241 µM (active)	0.197 µM (active)	0.0855 µM (active)	0.252 µM (active)	0.0647 µM (active)	0.439 µM (active)	0.103 µM (active)	0.256 µM (active)	0.0802 µM (active)	< 0.0154 µM (active)	0.0689 µM (active)	0.1 µM (active)	0.0908 µM (active)	0.194 µM (active)	0.132 µM (active)	< 0.0326 µM (active)	0.206 µM (active)	0.264 µM (active)	0.144 µM (active)
O=C(CSc1nc2ccccc2c(=O)n1-c1ccccc1)N/N=C1\C(=O)Nc2ccc(Br)cc21	6.21 µM (inactive)	4.92 µM (inactive)	3.33 µM (inactive)	2.74 µM (inactive)	2.39 µM (inactive)	2.62 µM (inactive)	7.05 µM (inactive)	2.44 µM (inactive)	10.3 µM (inactive)	3.74 µM (inactive)	15.6 µM (inactive)	2.81 µM (inactive)	2.26 µM (inactive)	4.57 µM (inactive)	12.1 µM (inactive)	2.4 µM (inactive)	3.4 µM (inactive)	1.85 µM (inactive)	2.92 µM (inactive)	4.44 µM (inactive)
COc1cc(C2S/C(=C/c3ccccc3)C(=O)N2c2cc(Cl)c(Cl)cc2Cl)cc(OC)c1OC (configuration not stated)	44.8 µM (inactive)	31.5 µM (inactive)	24.2 µM (inactive)	9.66 µM (inactive)	> 69.3 µM (inactive)	> 100 µM (inactive)	9.27 µM (inactive)	25.7 µM (inactive)	23.7 µM (inactive)	53.6 µM (inactive)	25.3 µM (inactive)	49.3 µM (inactive)	23.5 µM (inactive)	35.6 µM (inactive)	20.6 µM (inactive)	37.5 µM (inactive)	16.9 µM (inactive)	40 µM (inactive)	41.4 µM (inactive)	27.5 µM (inactive)
Cc1ccc(NC(=O)c2cccc(OP(=O)(O)Nc3ccc(C)cc3)c2)cc1	> 100 µM (inactive)	> 100 µM (inactive)	> 100 µM (inactive)	> 100 µM (inactive)	> 100 µM (inactive)	> 100 µM (inactive)	> 100 µM (inactive)	> 100 µM (inactive)	> 100 µM (inactive)	> 100 µM (inactive)	32.4 µM (inactive)	> 100 µM (inactive)	> 100 µM (inactive)	57.4 µM (inactive)	> 100 µM (inactive)	33.3 µM (inactive)	18.7 µM (inactive)	> 100 µM (inactive)	> 100 µM (inactive)	> 100 µM (inactive)
CC1CCCC2(CC[N+](C)(CCC[N+](C)(C)C)CC2)C1 (configuration not stated)	> 100 µM (inactive)	> 100 µM (inactive)	> 100 µM (inactive)	> 100 µM (inactive)	> 100 µM (inactive)	> 100 µM (inactive)	> 100 µM (inactive)	> 100 µM (inactive)	> 100 µM (inactive)	> 100 µM (inactive)	> 100 µM (inactive)	> 100 µM (inactive)	> 100 µM (inactive)	> 100 µM (inactive)	> 100 µM (inactive)	> 100 µM (inactive)	> 100 µM (inactive)	> 100 µM (inactive)	> 100 µM (inactive)	> 100 µM (inactive)
